Earlier results, collected in US20210228671A1, “EXTRACT OF VEGETATION WATERS FOR USE IN THE TREATMENT AND/OR IN THE PREVENTION OF PROSTATE CANCER” (FATTORIA LA VIALLA DI GIANNI, ANTONIO E BANDINO LO FRANCO - …, priority 2018, published 2021).

Conditions: high concentrations, up to 250-500 mg/kg/day

Compound: OCCc1ccc(O)c(O)c1 [hydroxytyrosol]
- toxic effect of in vivo administration: does not exert any toxic effect
